Results published in PMC13004581, “Physical Mechanisms of an Unconventional Green Fluorescent Protein Indicator for Chloride” (The Journal of Physical Chemistry. B, 2026).

The molecules below were run against T1, cgreGFP (Clytia gregaria, UniProt D7PM05) (assay: fluorescence titration (ex […] nm, em […] nm)). Settings: read-out: K d (apparent).
T1 construct: gene GFP2; full-length, N-terminal polyhistidine tag kept (pET-28a(+)-TEV, NdeI/BamHI), codon-optimized gene, expressed in E. coli BL21(DE3)
T1 sequence (D7PM05 1-235): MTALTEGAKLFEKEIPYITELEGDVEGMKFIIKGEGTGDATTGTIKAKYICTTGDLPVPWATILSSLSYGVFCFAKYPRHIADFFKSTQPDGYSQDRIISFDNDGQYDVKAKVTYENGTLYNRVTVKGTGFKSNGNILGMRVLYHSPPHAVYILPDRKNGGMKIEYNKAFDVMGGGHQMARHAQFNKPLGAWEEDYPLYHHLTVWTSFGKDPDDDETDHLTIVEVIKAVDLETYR
Assay type: binding

Kd	Structure (SMILES)
10.7 ± 1.2 mM	O=[N+]([O-])O [nitrate]
5.3 mM	I [iodide]
15.1 ± 1.2 mM	Br [bromide]

Structure (SMILES)	Kd
Cl [chloride]	25.2 ± 2 mM
